Data published in patent US5302586A, “Phosphonomethyl-imidazo[1,2-a]pyrimidine-2-carboxylic acid compounds for treatment of neurotoxic injury” (G. D. Searle & Co., priority 1992, dated 1994).
One block for each molecule: values may come before it.

Tests used:
[1] = system: NMDA; conditions: CPP binding to rat brain hippocampal tissue, Murphy et al 1987; cited from earlier work
[2] = target: [^3 H]MK-801 binding, rat SPM (NMDA receptor); assay: [^3 H]MK-801 Binding assay (Triton X-100 treated rat synaptic plasma membranes); conditions: 5.0 nM [^3 H]MK-801, L-glutamate 10.0 nM, 25° C., 30 min, pH 7.4
Protocol: Modulation of [^3 H]MK-801 binding was performed using Triton X-100 (0.04% v/v) treated rat SPM that had been extensively washed. Assay incubations were at 25° C. for 30 min. and contained 5.0 nM [^3 H]MK-801, L-glutamate (10.0 nM), and various concentrations of the tested compound of the invention in 50 mM Tris/acetate, pH 7.4. The assay was stopped by rapid filtration, using Brandel MB-48 Harvester, through Whatman GF/B filters treated with 0.05% polyethylenimine and the samples washed four times with 2.0 mL cold buffer. The radioactivity associated with the filter was determined by liquid scintillation spectrometry. Nonspecific binding was defined using 60 μM MK-801. IC50 were determined using a logit-log transformation of the binding data.

[3] = target: NMDA receptor site (NMDA-specific L-[^3 H]glutamate recognition site); assay: NMDA-Selective Glutamate Binding Assay (L-[^3 H]glutamate, synaptic plasma membranes); parameters: species or system rat
Protocol: Synaptic plasma membranes (SPM) were prepared as previously described [Monohan, J. B. and Michel, J., "Identification and Characterization of an N-methyl-D-aspartate-specific L[^3 H]glutamate Recognition Site in Synaptic Plasma Membranes, J. Neurochem., 48, 1699-1708 (1987)]. The SPM were stored at a concentration of 10-15 mg/ml in 0.32M sucrose, 0.5 mM EDTA, 1 mM MgSO4, 5 mM Tris/SO4, pH 7.4, under liquid nitrogen. The identity and purity of the subcellular fractions were confirmed by both electron microscopy and marker enzymes. Protein concentrations were determined by using a modification of the method of Lowry [Ohnishi, S. T. and Barr, J. K., "A Simplified Method of Quantitating Proteins Using the Biuret and Phenol Reagents", Anal. Biochem., 86, 193-197 (1978)]. The SPM were treated identically for the [^3 H]AMPA (QUIS), [^3 H]kainate and sodium-dependent L-[^3 H]-glumatate binding assays. […] Beckman MP scintillation cocktail containing 7 mL/1 acetic acid was then added and the samples counted on a Beckman LS 5800 or 3801 liquid scintillation counter with automatic corrections for quenching and counting efficiency. […] Radioligand binding to the synaptic plasma membranes was analyzed using Scatchard and Hill transformations and the Ki values of the compounds determined using logit-log transformations. […]

Structure (SMILES): O=C(O)C1CN(CCCP(=O)(O)O)CCN1 (stereo not shown) [CPP, 3-(2-carboxypiperazin-4-yl)propyl-1-phosphonic acid]
NMDA antagonist potency and selectivity [1]: potent and selective NMDA antagonist

Ki [2]: 4.6 µM
Ki ([3]; [^3 H]GLU, Triton X-100 treated SPM, 50 mM Tris/acetate pH 7.4, 0°-4° C., 10 min): 8.8 µM
Structure (SMILES): O=C(O)c1cn2c(CP(=O)(O)O)ccnc2n1 [Example 1, 5-Phosphonomethyl-imidazo[1,2-a]pyrimidine-2-carboxylic acid]

[^3 H]GLU % inhibition ([3]; @ 10 μM): 14%
Structure (SMILES): O=C(O)c1cn2ccc(CP(=O)(O)O)nc2n1 [Example 2, 7-phosphonomethyl-imidazo[1,2-a]pyrimidine-2-carboxylic acid]
